Results taken from PMC7248707 (Molecules, 2020).

How the values were obtained:
[1] = cited from earlier work
rat MOR = biological target: rat MOR; set-up: method as in PMID 2537427; conditions: rat brain tissue; cited from earlier work
MOR = conditions: read-out: IC50 in the GPI bioassay; cited from earlier work
human MOR [2] = biological target: T1, human MOR (Homo sapiens, UniProt P35372)
human MOR [3] = biological target: T1, human MOR; remark: listed apart in the source

T1 sequence (P35372 whole entry): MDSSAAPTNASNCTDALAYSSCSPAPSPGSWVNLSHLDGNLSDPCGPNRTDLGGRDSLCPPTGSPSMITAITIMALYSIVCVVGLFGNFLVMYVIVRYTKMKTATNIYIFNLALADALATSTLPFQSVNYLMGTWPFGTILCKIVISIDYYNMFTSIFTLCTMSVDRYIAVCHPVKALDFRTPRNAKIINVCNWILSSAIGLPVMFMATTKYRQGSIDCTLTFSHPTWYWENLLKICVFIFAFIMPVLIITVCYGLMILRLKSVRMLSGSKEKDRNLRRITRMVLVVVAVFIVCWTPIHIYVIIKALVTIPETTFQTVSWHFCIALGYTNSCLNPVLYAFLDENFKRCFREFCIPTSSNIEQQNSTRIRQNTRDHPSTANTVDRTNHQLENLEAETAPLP

Q: With `NCCCC[C@H](NC(=O)[C@H](Cc1ccccc1)NC(=O)[C@@H](CCCN=C(N)N)NC(=O)[C@@H](N)Cc1ccc(O)cc1)C(N)=O` [DALDA, H-Tyr-D-Arg-Phe-Lys-NH2] as the molecule, how does the “BBB crossing / CNS entry” value [1] read?
A: does not cross the BBB

Q: And the Ki (rat MOR)?
A: 1690 pM

Q: For `Cc1cc(O)cc(C)c1C[C@H](N)C(=O)N[C@H](CCCNC(=N)N)C(=O)N[C@H]1Cc2ccccc2CN(CCC(N)=O)C1=O` [KGOP01], which “BBB crossing / CNS entry” value [1] is on record?
A: can enter the CNS

Q: What about the IC50 (MOR) of the same molecule?
A: 800 pM

Q: What about the “enhanced MOR agonist potency versus [Dmt^1]DALDA” value (human MOR [2]) of the same molecule?
A: 5 fold

Q: And the EC50 (human MOR [2]; read-out: Agonist Activity EC50)?
A: 100 ± 20 pM

Q: What about the “better MOR affinity than DAMGO” value (human MOR [3]; relative to DAMGO) of the same molecule?
A: 13 fold

Q: What about the “increase in MOR affinity versus [Dmt^1]DALDA” value (human MOR [3]; relative to [Dmt^1]DALDA) of the same molecule?
A: ca. 2 fold
